Read-outs that look alike come from different tables or passages of the source.

Assay [1] relates to NCI-H82 (human small cell lung cancer cell). Briefly: Cell viability, Promega CellTiter-Glo kit (intracellular ATP), NCI-H82. The format is cell-based. Particulars: sensitive group, 3-4 days of culture, n=3, read-out: IC50 (50% inhibiting concentration), inhibitory effect on cell line. Here is the method: (§1) In the experiment, the IC50 value of sunitinib or sunitinib malate on various tumor cell lines was determined.

Assay [2] deals with G-401 (human renal carcinoma Wilms cell). Briefly: Cell viability, Promega CellTiter-Glo kit (intracellular ATP), G-401. The format is cell-based. Particulars: sensitive group, 3-4 days of culture, n=3, read-out: IC50 (50% inhibiting concentration), inhibitory effect on cell line. Here is the method:
as §1
(§2) After 3-4 days of culture, the relevant IC50 (50% inhibiting concentration) was measured (n=3).
On the technique in general: In ATP-based viability assays light output follows the ATP content of the culture.

Assay [3] relates to SW48 (human colon adenocarcinoma cell). The assay is described as follows: Cell viability, Promega CellTiter-Glo kit (intracellular ATP), SW48. The format is cell-based. The settings on record: sensitive group, 3-4 days of culture, n=3, read-out: IC50 (50% inhibiting concentration), inhibitory effect on cell line. The protocol: as §1, §2
Assay [4] deals with WSU-DLCL2 (human diffuse large B-cell lymphoma). Briefly: Cell viability, Promega CellTiter-Glo kit (intracellular ATP), WSU-DLCL2. Particulars: sensitive group, 3-4 days of culture, n=3, read-out: IC50 (50% inhibiting concentration), inhibitory effect on cell line. The format is cell-based. Here is the method: as §1, §2
For assay [5], the system named is CFPAC-1 (human pancreatic cancer cell). Briefly: Cell viability, Promega CellTiter-Glo kit (intracellular ATP), CFPAC-1. The format is cell-based. The settings on record: insensitive group, 3-4 days of culture, n=3, read-out: IC50 (50% inhibiting concentration), inhibitory effect on cell line. Here is the method: as §1, §2
Assay [6] deals with 786-O (clear cell renal cell adenocarcinoma cell). Briefly: Cell viability, Promega CellTiter-Glo kit (intracellular ATP), 786-O. The format is cell-based, human. The settings on record: insensitive group, 3-4 days of culture, n=3, read-out: IC50 (50% inhibiting concentration), inhibitory effect on cell line. Here is the method:
as §1, §2

Assay [7] concerns GB-1 (human glioblastoma cell). The assay is described as follows: Cell viability, Promega CellTiter-Glo kit (intracellular ATP), GB-1. It counts as cell-based. The settings on record: insensitive group, 3-4 days of culture, n=3, read-out: IC50 (50% inhibiting concentration), inhibitory effect on cell line. Here is the method:
as §1, §2

Assay [8] deals with SF126 (human glioblastoma multiforme cell). The assay is described as follows: Cell viability, Promega CellTiter-Glo kit (intracellular ATP), SF126. The format is cell-based. Particulars: insensitive group, 3-4 days of culture, n=3, read-out: IC50 (50% inhibiting concentration), inhibitory effect on cell line. The protocol: as §1, §2
Assay [9] concerns control NCI-H82 cell (NCI-H82 (Con)). Briefly: Cell viability, Promega CellTiter-Glo kit, control NCI-H82 cell. The format is cell-based, human. The settings on record: n=3. From the text:
(§3) The NNMT protein-overexpressing NCI-H82 cell (NCI-H82 (ov-NNMT)) was obtained by inserting the NNMT gene into NCI-H82 cell using a viral vector. The control NCI-H82 cell (NCI-H82 (Con)) was obtained by transfecting NCI-H82 cell with empty virus vector without carrying NNMT gene.

In assay [10] the test system is NNMT protein-overexpressing NCI-H82 cell (NCI-H82 (ov-NNMT)). Briefly: Cell viability, Promega CellTiter-Glo kit, NNMT protein-overexpressing NCI-H82 cell. The format is cell-based, human. The settings on record: n=3.
Source text: as §3

The subject of assay [11] is MDA-MB-453 (breast cancer cell). The assay is described as follows: Cell viability, Promega CellTiter-Glo kit (intracellular ATP), MDA-MB-453. The settings on record: sensitive group, 3-4 days of culture, n=3.

As to `CCN(CC)CCNC(=O)c1c(C)[nH]c(/C=C2\C(=O)Nc3ccc(F)cc32)c1C` [Sunitinib malate, sunitinib malate], the IC50 was found to be 1.29 µM in [1] (NCI-H82); 2.5 µM in assay [2] (G-401); 1.47 µM in assay [3] (SW48); 1.11 µM in assay [4] (WSU-DLCL2); 16.8 µM in assay [5] (CFPAC-1); 17.8 µM in [6] (786-O). Also, the IC50 in assay [7] turned out to be 12.1 µM; in [8] (SF126), 12.4 µM; in [9] (NCI-H82 transfected with empty virus vector without NNMT gene) it was 1.21 µM; in assay [10] (NCI-H82 with NNMT gene inserted via viral vector (NNMT protein overexpressed)), 3.31 µM; in assay [11] (read-out: IC50 (50% inhibiting concentration), inhibitory effect on cell line, MDA-MB-453), 2.33 µM.

For the molecule `CCN(CC)CCNC(=O)c1c(C)[nH]c(/C=C2\C(=O)Nc3ccc(F)cc32)c1C` [Sunitinib, sunitinib], the IC50 in assay [1] (Homo sapiens, NCI-H82, NCI-H82) stood at 1.3 µM; in assay [2] (Homo sapiens, G-401, G-401), 2.91 µM; in assay [3] (Homo sapiens, SW48, SW48), 1.15 µM; in assay [4] (Homo sapiens, WSUDLCL2, WSU-DLCL2) it was 1.34 µM; in assay [5] (Homo sapiens, CFPAC-1, CFPAC-1), 19.6 µM; in assay [6] (Homo sapiens, 786-0, 786-O) it was 23.7 µM. Besides, the IC50 was 10.7 µM in assay [7] (Homo sapiens); 11.4 µM in assay [8] (Homo sapiens, SF-126, SF126); 1.24 µM in [9] (Homo sapiens, NCI-H82, NCI-H82 transfected with empty virus vector without NNMT gene); 2.96 µM in [10] (Homo sapiens, NCI-H82, NCI-H82 with NNMT gene inserted via viral vector (NNMT protein overexpressed)); 2.47 µM in assay [11] (Homo sapiens, MDA-MB-453, read-out: IC50 (50% inhibiting concentration), inhibitory effect on cell line, MDA-MB-453).

Values taken from US20250120946A1, “USE OF PYRROLE COMPOUND IN TREATMENT OF TUMORS” (NANJING SHIJIANG MEDICINE TECHNOLOGY CO., LTD, priority 2021, published 2025).
